How the values were obtained:
[1] = molecular target: Beta-1 adrenergic receptor (Homo sapiens, UniProt P08588); assay: DRUGMATRIX: Adrenergic beta1 radioligand binding (ligand: [125I] Cyanopindolol); assay type: cell membranes, CHO-K1, Membrane; conditions: cho-k1; Not Active = under 50% inhibition at 10 µM
[2] = DRUGMATRIX: beta-Lactamase enzyme inhibition (substrate: Nitrocefin); design: species or system Bacillus cereus; conditions: Not Active = under 50% inhibition at 10 µM
[3] = DRUGMATRIX: Calcium Channel Type L, Dihydropyridine radioligand binding (ligand: [3H] Nitrendipine); assay type: cell membranes, Rattus norvegicus, Wistar, Cerebral cortex, Membrane; conditions: Not Active = under 50% inhibition at 10 µM
[4] = molecular target: T1, Vasoactive intestinal polypeptide receptor 1 (Homo sapiens, UniProt P32241); assay type: cell membranes, Membrane; conditions: ht-29; note: in other assays of this panel Not Active means under 50% inhibition at 10 µM
T1 sequence (P32241 whole entry): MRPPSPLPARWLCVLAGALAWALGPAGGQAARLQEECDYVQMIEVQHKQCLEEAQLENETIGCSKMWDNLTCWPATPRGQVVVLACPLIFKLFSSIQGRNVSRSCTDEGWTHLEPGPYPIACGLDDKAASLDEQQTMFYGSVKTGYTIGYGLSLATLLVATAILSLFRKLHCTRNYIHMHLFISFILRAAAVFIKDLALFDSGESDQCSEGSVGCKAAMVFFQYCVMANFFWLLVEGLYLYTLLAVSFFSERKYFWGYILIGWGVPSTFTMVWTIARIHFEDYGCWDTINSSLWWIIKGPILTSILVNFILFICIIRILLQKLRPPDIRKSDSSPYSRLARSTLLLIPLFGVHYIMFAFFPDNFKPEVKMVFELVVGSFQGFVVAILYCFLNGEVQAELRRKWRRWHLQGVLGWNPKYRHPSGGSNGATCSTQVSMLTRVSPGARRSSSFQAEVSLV

[5] = molecular target: T2, C-C chemokine receptor type 4 (Homo sapiens, UniProt P51679); assay type: cell membranes, Membrane; conditions: chem-1; note: in other assays of this panel Not Active means under 50% inhibition at 10 µM
T2 sequence (P51679 whole entry): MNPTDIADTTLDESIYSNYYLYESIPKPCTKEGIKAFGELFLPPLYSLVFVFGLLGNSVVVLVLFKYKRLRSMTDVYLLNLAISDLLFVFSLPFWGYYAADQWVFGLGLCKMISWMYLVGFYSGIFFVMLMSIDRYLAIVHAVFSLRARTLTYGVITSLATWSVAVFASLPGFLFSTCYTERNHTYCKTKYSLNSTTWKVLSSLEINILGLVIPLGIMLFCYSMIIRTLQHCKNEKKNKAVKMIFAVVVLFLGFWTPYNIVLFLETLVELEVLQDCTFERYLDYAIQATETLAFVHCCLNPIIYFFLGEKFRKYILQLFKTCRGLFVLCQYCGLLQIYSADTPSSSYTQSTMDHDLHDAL

[6] = molecular target: Prostaglandin G/H synthase 1 (Homo sapiens, UniProt P23219); assay: biochemical; assay type: tissue-based, Platelet; conditions: platelet;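 note: inhibition of COX-1 enzyme activity, with arachidonic acid supplied as substrate; in other assays of this panel Not Active means under 50% inhibition at 10 µM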
[7] = DRUGMATRIX: Interleukin IL-1 radioligand binding (ligand: [125I] interleukin 1beta); assay type: cell membranes, Membrane; conditions: nih3t3; Not Active = under 50% inhibition at 10 µM
[8] = DRUGMATRIX: Leukotriene, BLT (LTB4) radioligand binding (ligand: [3H]LTB4); assay type: cell membranes, Membrane; conditions: u-937; Not Active = under 50% inhibition at 10 µM
[9] = molecular target: Melanocortin receptor 3 (Homo sapiens, UniProt P41968); assay type: cell membranes, Membrane; conditions: hek293; note: in other assays of this panel Not Active means under 50% inhibition at 10 µM
[10] = molecular target: Melanocortin receptor 5 (Homo sapiens, UniProt P33032); assay type: cell membranes, HEK293, Membrane; conditions: hek293; note: in other assays of this panel Not Active means under 50% inhibition at 10 µM
[11] = molecular target: T3, Neuropeptide Y receptor type 1 (Homo sapiens, UniProt P25929); assay type: cell membranes, Membrane; conditions: sk-n-mc; note: in other assays of this panel Not Active means under 50% inhibition at 10 µM
T3 sequence (P25929 whole entry): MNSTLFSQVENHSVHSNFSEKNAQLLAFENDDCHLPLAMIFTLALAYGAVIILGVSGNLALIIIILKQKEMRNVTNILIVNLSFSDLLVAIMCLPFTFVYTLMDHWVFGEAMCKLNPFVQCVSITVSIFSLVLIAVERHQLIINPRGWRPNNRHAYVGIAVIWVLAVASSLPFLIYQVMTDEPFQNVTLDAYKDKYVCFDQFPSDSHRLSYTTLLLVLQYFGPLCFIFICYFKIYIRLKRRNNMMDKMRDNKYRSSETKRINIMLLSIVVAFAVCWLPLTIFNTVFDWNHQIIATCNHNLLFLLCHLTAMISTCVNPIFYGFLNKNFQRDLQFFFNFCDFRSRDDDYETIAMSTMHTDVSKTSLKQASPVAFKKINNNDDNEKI

[12] = molecular target: Delta-type opioid receptor (Homo sapiens, UniProt P41143); assay type: cell membranes, HEK293, Membrane; conditions: hek293; note: in other assays of this panel Not Active means under 50% inhibition at 10 µM
[13] = molecular target: T4, Progesterone receptor (Bos taurus, UniProt Q690N0); assay: DRUGMATRIX: Progesterone radioligand binding (ligand: [3H] R-5020); assay type: tissue-based, Uterus; conditions: Not Active = under 50% inhibition at 10 µM; for Ki: read-out: Ki
T4 sequence (Q690N0 whole entry): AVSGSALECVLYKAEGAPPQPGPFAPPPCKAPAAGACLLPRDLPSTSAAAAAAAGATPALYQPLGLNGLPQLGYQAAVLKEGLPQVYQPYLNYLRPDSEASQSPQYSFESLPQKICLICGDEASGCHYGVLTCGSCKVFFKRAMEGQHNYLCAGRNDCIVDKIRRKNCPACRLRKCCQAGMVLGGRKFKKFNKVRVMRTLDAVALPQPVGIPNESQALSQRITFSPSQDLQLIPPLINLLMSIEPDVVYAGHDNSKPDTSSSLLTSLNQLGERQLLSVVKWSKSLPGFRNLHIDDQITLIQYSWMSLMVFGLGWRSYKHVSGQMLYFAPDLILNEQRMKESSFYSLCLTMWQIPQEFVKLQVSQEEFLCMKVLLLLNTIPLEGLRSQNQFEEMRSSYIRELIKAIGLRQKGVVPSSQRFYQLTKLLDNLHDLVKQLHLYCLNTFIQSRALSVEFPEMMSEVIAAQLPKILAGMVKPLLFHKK

[14] = molecular target: T5, 5-hydroxytryptamine receptor 1A (Rattus norvegicus, UniProt P19327); assay type: cell membranes, CHO-K1, Membrane; conditions: cho-k1; note: in other assays of this panel Not Active means under 50% inhibition at 10 µM
T5 sequence (P19327 whole entry): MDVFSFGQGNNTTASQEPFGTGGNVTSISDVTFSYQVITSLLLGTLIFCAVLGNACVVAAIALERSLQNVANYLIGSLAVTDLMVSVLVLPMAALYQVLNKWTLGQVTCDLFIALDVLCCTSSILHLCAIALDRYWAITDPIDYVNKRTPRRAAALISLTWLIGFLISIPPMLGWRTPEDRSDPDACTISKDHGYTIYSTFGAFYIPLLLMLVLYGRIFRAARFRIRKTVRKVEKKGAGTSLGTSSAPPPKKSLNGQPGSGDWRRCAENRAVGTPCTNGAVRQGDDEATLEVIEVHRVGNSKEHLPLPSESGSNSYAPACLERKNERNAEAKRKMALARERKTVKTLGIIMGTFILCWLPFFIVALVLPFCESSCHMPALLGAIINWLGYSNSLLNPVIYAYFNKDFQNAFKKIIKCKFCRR

Delta-type opioid receptor, sequence (P41143 whole entry): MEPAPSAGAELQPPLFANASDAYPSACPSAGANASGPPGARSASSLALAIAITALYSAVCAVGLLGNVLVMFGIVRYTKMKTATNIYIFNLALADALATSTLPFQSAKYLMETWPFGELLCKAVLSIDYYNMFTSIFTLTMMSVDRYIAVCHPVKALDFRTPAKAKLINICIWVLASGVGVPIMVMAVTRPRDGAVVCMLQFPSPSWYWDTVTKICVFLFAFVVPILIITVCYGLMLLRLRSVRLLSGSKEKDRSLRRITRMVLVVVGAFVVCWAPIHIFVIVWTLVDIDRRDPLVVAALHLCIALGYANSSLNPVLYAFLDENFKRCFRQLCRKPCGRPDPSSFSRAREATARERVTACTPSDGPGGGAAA
Melanocortin receptor 5, sequence (P33032 whole entry): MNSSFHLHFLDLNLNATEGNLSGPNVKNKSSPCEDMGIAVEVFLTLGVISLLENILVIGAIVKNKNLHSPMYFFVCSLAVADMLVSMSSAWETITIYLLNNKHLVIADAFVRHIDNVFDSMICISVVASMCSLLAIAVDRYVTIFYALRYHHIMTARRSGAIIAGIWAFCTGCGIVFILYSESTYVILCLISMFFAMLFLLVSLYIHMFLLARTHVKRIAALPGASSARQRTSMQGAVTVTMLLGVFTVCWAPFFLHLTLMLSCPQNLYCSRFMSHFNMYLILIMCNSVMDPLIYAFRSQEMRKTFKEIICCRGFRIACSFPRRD
Beta-1 adrenergic receptor, sequence (P08588 whole entry): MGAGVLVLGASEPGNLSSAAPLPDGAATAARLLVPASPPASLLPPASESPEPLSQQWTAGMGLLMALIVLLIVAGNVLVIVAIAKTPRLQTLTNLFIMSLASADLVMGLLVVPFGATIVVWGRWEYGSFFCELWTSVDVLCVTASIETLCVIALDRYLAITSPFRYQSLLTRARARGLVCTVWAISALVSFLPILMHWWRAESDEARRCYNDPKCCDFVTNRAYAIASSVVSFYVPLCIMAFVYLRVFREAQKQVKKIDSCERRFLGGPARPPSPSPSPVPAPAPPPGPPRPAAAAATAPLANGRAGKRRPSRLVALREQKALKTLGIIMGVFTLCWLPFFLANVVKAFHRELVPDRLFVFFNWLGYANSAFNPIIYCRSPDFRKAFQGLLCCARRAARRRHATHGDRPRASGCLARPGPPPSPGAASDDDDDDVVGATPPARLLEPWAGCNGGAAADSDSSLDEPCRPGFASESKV
Prostaglandin G/H synthase 1, sequence (P23219 whole entry): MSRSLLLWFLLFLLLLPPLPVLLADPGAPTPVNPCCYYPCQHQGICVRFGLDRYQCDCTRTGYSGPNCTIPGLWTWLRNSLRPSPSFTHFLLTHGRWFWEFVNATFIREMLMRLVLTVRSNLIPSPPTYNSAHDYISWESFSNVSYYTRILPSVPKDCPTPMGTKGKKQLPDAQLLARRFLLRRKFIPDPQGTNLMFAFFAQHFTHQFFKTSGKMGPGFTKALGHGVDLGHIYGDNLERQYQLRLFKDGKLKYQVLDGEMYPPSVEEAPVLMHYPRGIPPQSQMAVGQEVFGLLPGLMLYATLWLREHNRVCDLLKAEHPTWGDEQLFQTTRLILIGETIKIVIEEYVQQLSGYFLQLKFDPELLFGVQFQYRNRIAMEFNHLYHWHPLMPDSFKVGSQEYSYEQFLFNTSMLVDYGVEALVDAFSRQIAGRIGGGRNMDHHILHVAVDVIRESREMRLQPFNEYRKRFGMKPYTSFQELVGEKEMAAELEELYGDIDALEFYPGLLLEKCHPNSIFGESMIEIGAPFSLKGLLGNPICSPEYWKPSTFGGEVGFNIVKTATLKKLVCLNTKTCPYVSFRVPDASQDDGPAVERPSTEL
Melanocortin receptor 3, sequence (P41968 whole entry): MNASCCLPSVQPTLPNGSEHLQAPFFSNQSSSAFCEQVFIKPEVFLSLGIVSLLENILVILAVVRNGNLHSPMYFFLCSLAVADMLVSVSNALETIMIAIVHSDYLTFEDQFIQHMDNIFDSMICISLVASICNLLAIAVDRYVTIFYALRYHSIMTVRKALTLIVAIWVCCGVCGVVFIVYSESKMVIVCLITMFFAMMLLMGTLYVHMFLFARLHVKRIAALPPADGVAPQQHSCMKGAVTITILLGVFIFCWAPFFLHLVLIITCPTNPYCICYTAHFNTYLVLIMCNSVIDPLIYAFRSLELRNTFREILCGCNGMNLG

CC(=O)[C@H]1CC[C@H]2[C@@H]3CCC4=CC(=O)CC[C@]4(C)[C@H]3CC[C@]12C [PROGESTERONE]
Not Active: IC50 [1] | IC50 [2] | Ki [2] | IC50 [3] | Ki [3] | IC50 [4] | IC50 [5] | IC50 [6] | IC50 [7] | Ki [7] | IC50 [8] | Ki [8] | IC50 [9] | IC50 [10] | IC50 [11] | IC50 [12] | IC50 [14]
28 nM: IC50 ([13]; read-out: IC50)
3.62 nM: Ki [13]

C[C@](N)(Cc1ccc(O)cc1)C(=O)O [METYROSINE]
Not Active: IC50 [1] | IC50 [2] | Ki [2] | IC50 [3] | Ki [3] | IC50 [4] | IC50 [5] | IC50 [6] | IC50 [7] | Ki [7] | IC50 [8] | Ki [8] | IC50 [9] | IC50 [10] | IC50 [11] | IC50 [12] | IC50 [13] | IC50 [14]

CC(C)[C@H](N)C(=O)OCCOCn1cnc2c(=O)nc(N)[nH]c21 [VALACYCLOVIR]
Not Active: IC50 [1] | IC50 [2] | Ki [2] | IC50 [3] | Ki [3] | IC50 [4] | IC50 [5] | IC50 [6] | IC50 [7] | Ki [7] | IC50 [8] | Ki [8] | IC50 [9] | IC50 [10] | IC50 [11] | IC50 [12] | IC50 [13] | IC50 [14]

Cc1cc(NS(=O)(=O)c2ccc(N)cc2)no1 [SULFAMETHOXAZOLE]
Not Active: IC50 [1] | IC50 [2] | Ki [2] | IC50 [3] | Ki [3] | IC50 [4] | IC50 [5] | IC50 [6] | IC50 [7] | Ki [7] | IC50 [8] | Ki [8] | IC50 [9] | IC50 [10] | IC50 [11] | IC50 [12] | IC50 [13] | IC50 [14]

CC1=C(/C=C/C(C)=C/C=C/C(C)=C\C(=O)O)C(C)(C)CCC1 [ISOTRETINOIN]
Not Active: Ki [1] | IC50 [2] | Ki [2] | IC50 [3] | Ki [3] | IC50 [4] | IC50 [5] | IC50 [6] | IC50 [7] | Ki [7] | IC50 [8] | Ki [8] | IC50 [9] | IC50 [10] | IC50 [11] | IC50 [12] | IC50 [13] | IC50 [14]

C[C@]12Cc3c[nH]nc3C[C@@H]1CC[C@@H]1[C@@H]2CC[C@@]2(C)[C@H]1CC[C@]2(C)O [STANOZOLOL]
483 nM: Ki [13]
3710 nM: IC50 ([13]; read-out: IC50)
Not Active: IC50 [1] | IC50 [2] | Ki [2] | IC50 [3] | Ki [3] | IC50 [4] | IC50 [5] | IC50 [6] | IC50 [7] | Ki [7] | IC50 [8] | Ki [8] | IC50 [9] | IC50 [10] | IC50 [11] | IC50 [12] | IC50 [14]

NCCCC[C@H](N[C@@H](CCc1ccccc1)C(=O)O)C(=O)N1CCC[C@H]1C(=O)O [LISINOPRIL ANHYDROUS]
Not Active: IC50 [1] | IC50 [2] | Ki [2] | IC50 [3] | Ki [3] | IC50 [4] | IC50 [5] | IC50 [6] | IC50 [7] | Ki [7] | IC50 [8] | Ki [8] | IC50 [9] | IC50 [10] | IC50 [11] | IC50 [12] | IC50 [13] | IC50 [14]

CC(=O)S[C@@H]1CC2=CC(=O)CC[C@]2(C)[C@H]2CC[C@@]3(C)[C@@H](CC[C@@]34CCC(=O)O4)[C@H]12 [SPIRONOLACTONE]
217 nM: Ki [13]
1670 nM: IC50 ([13]; read-out: IC50)
Not Active: IC50 [1] | IC50 [2] | Ki [2] | IC50 [3] | Ki [3] | IC50 [4] | IC50 [5] | IC50 [6] | IC50 [7] | Ki [7] | IC50 [8] | Ki [8] | IC50 [9] | IC50 [10] | IC50 [11] | IC50 [12] | IC50 [14]

From ChEMBL document CHEMBL1909046, “DrugMatrix in vitro pharmacology data”
